Data set [1] has as its system APEC O2. As to the kind of experiment: Antimicrobial susceptibility profile, CAMHB micro-dilution (CLSI). It is filed as cell-based, avian pathogenic Escherichia coli (APEC). Particulars: (R) = resistant. For orientation: Broth dilution looks for growth in wells or tubes with falling amounts of substance.
Data set [2] deals with APEC O15. Described as above. It is filed as cell-based, avian pathogenic Escherichia coli (APEC). Particulars: (R) = resistant.
For data set [3], the system named is APEC O35. The data set is described as above. It is filed as cell-based, avian pathogenic Escherichia coli (APEC). The note with it: (R) = resistant.
In data set [4] the test system is APEC O115. The description is as above. It is filed as cell-based, avian pathogenic Escherichia coli (APEC). The note with it: (R) = resistant.
The test system of data set [5] is APEC O2-211. The data set is described as above. It is filed as cell-based, avian pathogenic Escherichia coli (APEC). The note with it: APEC O2-211, CAMHB micro-dilution; (R) = resistant.
Data set [6] relates to APEC O1. The description is as above. It is filed as cell-based, avian pathogenic Escherichia coli (APEC). Particulars: (R) = resistant.
For data set [7], the system named is APEC O109. Described as above. The note with it: (R) = resistant. It is filed as cell-based, avian pathogenic Escherichia coli (APEC).
The subject of data set [8] is APEC O8. The data set is described as above. It is filed as cell-based, avian pathogenic Escherichia coli (APEC). Particulars: (R) = resistant.
Data set [9] has as its system APEC O18. The description is as above. In kind it is cell-based, avian pathogenic Escherichia coli (APEC). Particulars: (R) = resistant.
The subject of data set [10] is APEC O78. The description is as above. In kind it is cell-based, avian pathogenic Escherichia coli (APEC). Particulars: (R) = resistant.
Data set [11] concerns APEC O1-63. The description is as above. The note with it: APEC O1-63, CAMHB micro-dilution; (R) = resistant. In kind it is cell-based, avian pathogenic Escherichia coli (APEC).
Data set [12] deals with APEC O78-53. Described as above. In kind it is cell-based, avian pathogenic Escherichia coli (APEC). The note with it: APEC O78-53, CAMHB micro-dilution; (R) = resistant.
In data set [13] the test system is APEC O115. In kind it is cell-based, avian pathogenic Escherichia coli (APEC). The note with it: APEC O115, M63 media; MIC/MBC.
In data set [14] the test system is biofilm embedded APEC O78. In words: MBEC High-throughput assay. It is filed as cell-based, avian pathogenic Escherichia coli (APEC). Particulars: biofilm embedded APEC O78; superscript = multiple of MIC (footnote).
The test system of data set [15] is APEC O18. It is filed as cell-based, avian pathogenic Escherichia coli (APEC). The note with it: APEC O18, M63 media; MIC/MBC.
Data set [16] has as its system intracellular APEC O2 in HD11 cells. In words: Intracellular survival assay (cidal SMs). The note with it: O2, HD11, 6 h treatment; superscript = multiple of MIC.
Data set [17] has as its system APEC O109. In kind it is cell-based, avian pathogenic Escherichia coli (APEC). The note with it: APEC O109, M63 media; MIC/MBC.
The test system of data set [18] is intracellular APEC O78 in HD11 cells. As to the kind of experiment: Intracellular survival assay (cidal SMs). The note with it: O78, HD11, 6 h treatment; superscript = multiple of MIC.
In data set [19] the test system is APEC O2. It is filed as cell-based, avian pathogenic Escherichia coli (APEC). The note with it: APEC O2, M63 media; MIC/MBC.
In data set [20] the test system is intracellular APEC O78 in Caco-2 cells. In words: Intracellular survival assay (cidal SMs). The note with it: O78, Caco-2, 6 h treatment; superscript = multiple of MIC.
The subject of data set [21] is APEC O1-63. In kind it is cell-based, avian pathogenic Escherichia coli (APEC). Particulars: APEC O1-63, M63 media; MIC/MBC.
For data set [22], the system named is intracellular APEC O78 in THP-1 cells. As to the kind of experiment: Intracellular survival assay (cidal SMs). The note with it: O78, THP-1, 6 h treatment; superscript = multiple of MIC.
Data set [23] deals with APEC O78. As to the kind of experiment: Loss of 260/280 nm absorbing materials assay. It is filed as cell-based, avian pathogenic Escherichia coli (APEC). The note with it: 2X MBC, 1 h, *P<0.05 vs DMSO.
The subject of data set [24] is APEC O78-53. It is filed as cell-based, avian pathogenic Escherichia coli (APEC). The note with it: APEC O78-53, M63 media; MIC/MBC.
The test system of data set [25] is intracellular APEC O1 in HD11 cells. In words: Intracellular survival assay (cidal SMs). Particulars: O1, HD11, 6 h treatment; superscript = multiple of MIC.
The test system of data set [26] is intracellular APEC O1 in Caco-2 cells. In words: Intracellular survival assay (cidal SMs). The note with it: O1, Caco-2, 6 h treatment; superscript = multiple of MIC.
Data set [27] relates to APEC O78. As to the kind of experiment: Confocal microscopy bacterial cytological profiling. In kind it is cell-based, avian pathogenic Escherichia coli (APEC). Particulars: 2X MBC. The procedure: Confocal and scanning electron microscopy. Confocal microscopy was used for bacterial cytological profiling (BCP) to identify the cellular pathways targeted by SMs as described previously. […] After incubation, treated cultures were centrifuged, washed, and resuspended in 100 μL PBS. […] Cultures were then centrifuged, washed, and resuspended in PBS to 1⁄10th volume of the original cultures.

Data set [28] concerns APEC O15. In kind it is cell-based, avian pathogenic Escherichia coli (APEC). The note with it: APEC O15, M63 media; MIC/MBC.
Data set [29] deals with APEC O78. In kind it is cell-based, avian pathogenic Escherichia coli (APEC). The note with it: APEC O78, M63 media; cell prints MIC/MBC.
Data set [30] deals with APEC O1. It is filed as cell-based, avian pathogenic Escherichia coli (APEC). Particulars: APEC O1, M63 media; MIC/MBC.
Data set [31] can be described thus: Pilot experiment in chickens. It is filed as in vivo, chicken.
The subject of data set [32] is intracellular APEC O2 in THP-1 cells. In words: Intracellular survival assay (cidal SMs). The note with it: O2, THP-1, 6 h treatment; superscript = multiple of MIC.
The test system of data set [33] is APEC O35. It is filed as cell-based, avian pathogenic Escherichia coli (APEC). Particulars: APEC O35, M63 media; MIC/MBC.
Data set [34] has as its system intracellular APEC O2 in Caco-2 cells. In words: Intracellular survival assay (cidal SMs). The note with it: O2, Caco-2, 6 h treatment; superscript = multiple of MIC.
Data set [35] deals with intracellular APEC O1 in THP-1 cells. In words: Intracellular survival assay (cidal SMs). Particulars: O1, THP-1, 6 h treatment; superscript = multiple of MIC.
The subject of data set [36] is APEC O2-211. It is filed as cell-based, avian pathogenic Escherichia coli (APEC). The note with it: APEC O2-211, M63 media; MIC/MBC.
Data set [37] relates to APEC O8. It is filed as cell-based, avian pathogenic Escherichia coli (APEC). Particulars: APEC O8, M63 media; MIC/MBC.

Converted amounts (≈) assume the structure as drawn. Read-outs that look alike come from different tables or passages of the source. Marks after values point to notes of the source that are not given here.

As for `CN(C)[C@@H]1C(=O)C(C(N)=O)=C(O)[C@@]2(O)C(=O)C3=C(O)c4c(O)cccc4[C@@](C)(O)[C@H]3C[C@@H]12` [Tetracycline], the MIC in data set [1] is >64 (R) µg/mL; in data set [2] it was >64 (R) µg/mL; in data set [3], 1 µg/mL (≈ 2.25 µM); in data set [4], >64 (R) µg/mL; in [5], >64 (R) µg/mL; in [6] it was >64 (R) µg/mL. In addition, the MIC in [7] is 1 µg/mL (≈ 2.25 µM); in data set [8] it was >64 (R) µg/mL; in data set [9], 2 µg/mL (≈ 4.5 µM); in data set [10], 32 (R) µg/mL; in data set [11], 16 (R) µg/mL; in [12] it was >64 (R) µg/mL.

One may read the MBC as the lowest tested concentration that kills the bacteria rather than only halting them. With `CCCCCCCCCCCCCCCCn1c[n+](C)c2ccccc21.[Br-]` [SM5], the minimal bactericidal concentration (MBC) was 12.5 µM in data set [13]; 12.5 µM in [15]; 12.5 µM in data set [17]; 25 µM in data set [19]; 25 µM in data set [21]; 12.5 µM in data set [24]. In addition, the MBC in data set [28] stood at 12.5 µM; in data set [29] it was 25 µM; in data set [30] it was 12.5 µM; in [33], 25 µM; in data set [36] it was 12.5 µM; in data set [37], 12.5 µM. In addition, the MIC in [13], in [15], in data set [17], in data set [19], in [21] and in data set [24] was 12.5 µM in each case. Further, the MIC in [28], in [29], in data set [30], in [33], in data set [36] and in data set [37] was 12.5 µM in each case. Also, the MBEC in [14] is listed as 25^c µM. In addition, the “SMs intracellular APEC clearance concentration” value is 50^c µM in data set [16]; 50^c µM in data set [18]; 50^c µM in data set [20]; 50^c µM in data set [22]; 100^d µM in data set [25]; 100^d µM in [26]. In addition, the “SMs intracellular APEC clearance concentration” value in data set [32] is recorded as 50^c µM; in data set [34] it was 100^d µM; in [35] it was 100^d µM. In data set [23] (260 nm absorbing material in supernatant), the “Absorbance 260” value is 4.00*. Also, the “Absorbance 280” value in [23] (280 nm absorbing material in supernatant) was 2.67*. Also, the “cytological profile (confocal, FM4-64 / SYTO-9)” value in data set [27] is given as “membrane disruptors”. Besides, the “impact on chicken health and performance” value in data set [31] is reported as “no negative impact”.

Regarding `CC1(C)S[C@@H]2[C@H](NC(=O)[C@H](N)c3ccccc3)C(=O)N2[C@H]1C(=O)O` [Ampicillin], the MIC is given as >64 (R) µg/mL in [1]; 2 µg/mL (≈ 5.72 µM) in [2]; 2 µg/mL (≈ 5.72 µM) in data set [3]; >64 (R) µg/mL in [4]; 4 µg/mL (≈ 11.4 µM) in data set [5]; >64 (R) µg/mL in data set [6]. Further, the MIC is on record as >64 (R) µg/mL in data set [7]; 4 µg/mL (≈ 11.4 µM) in data set [8]; 4 µg/mL (≈ 11.4 µM) in data set [9]; >64 (R) µg/mL in data set [10]; 4 µg/mL (≈ 11.4 µM) in data set [11]; 4 µg/mL (≈ 11.4 µM) in data set [12].

Regarding Colistin, the MIC in data set [1] is 0.5 µg/mL; in data set [2], 1 µg/mL; in data set [3] it was 1 µg/mL; in [4], 1 µg/mL; in data set [5], 4 (R) µg/mL; in data set [6], 0.5 µg/mL. In addition, the MIC in [7] is recorded as 0.5 µg/mL; in data set [8], 1 µg/mL; in data set [9], 1 µg/mL; in data set [10], 0.25 µg/mL; in data set [11] it was 4 (R) µg/mL; in data set [12], 0.5 µg/mL.

Values taken from US20230355597A1, “COMPOUNDS, COMPOSITIONS, AND METHODS FOR THE TREATMENT AND PREVENTION OF AVIAN PATHOGENIC E. COLI (APEC)” (OHIO STATE INNOVATION FOUNDATION, priority 2018, published 2023).
